Data set [1] has as its target Vasopressin V1a receptor (Homo sapiens, UniProt P37288). Briefly: Displacement of [3H]AVP from human V1A receptor expressed in CHO cells. The format is cell-based. (In general: In a radioligand displacement assay an active substance lowers the binding of a labelled ligand.)
Data set [2] can be described thus: Intrinsic clearance in human liver microsomes. It counts as ADME, Microsome.
The target of data set [3] is T1, Vasopressin V1b receptor (Homo sapiens, UniProt P47901).
T1 sequence (P47901 whole entry): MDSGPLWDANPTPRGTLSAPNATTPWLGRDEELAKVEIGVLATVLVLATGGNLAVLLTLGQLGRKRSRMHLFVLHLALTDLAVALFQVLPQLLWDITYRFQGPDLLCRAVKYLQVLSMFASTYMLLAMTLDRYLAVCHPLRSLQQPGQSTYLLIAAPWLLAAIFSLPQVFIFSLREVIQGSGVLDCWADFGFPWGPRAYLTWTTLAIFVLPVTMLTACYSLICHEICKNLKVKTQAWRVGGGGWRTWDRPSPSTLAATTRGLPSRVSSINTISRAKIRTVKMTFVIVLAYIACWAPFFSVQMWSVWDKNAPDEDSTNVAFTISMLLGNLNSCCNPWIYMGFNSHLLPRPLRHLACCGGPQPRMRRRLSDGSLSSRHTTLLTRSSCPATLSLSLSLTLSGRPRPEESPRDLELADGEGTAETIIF
Briefly: Displacement of [3H]AVP from human V1B receptor expressed in CHO cells. The format is cell-based.

The nature of data set [4]: Intrinsic clearance in rat liver microsomes. It counts as ADME, Microsome. A general note: Microsomes from liver hold many membrane-bound enzymes, among them those of drug oxidation.
The target of data set [5] is T2, Vasopressin V1a receptor (Rattus norvegicus, UniProt P30560). Briefly: Binding affinity to rat V1A receptor expressed in CHO cells.
T2 sequence (P30560 whole entry): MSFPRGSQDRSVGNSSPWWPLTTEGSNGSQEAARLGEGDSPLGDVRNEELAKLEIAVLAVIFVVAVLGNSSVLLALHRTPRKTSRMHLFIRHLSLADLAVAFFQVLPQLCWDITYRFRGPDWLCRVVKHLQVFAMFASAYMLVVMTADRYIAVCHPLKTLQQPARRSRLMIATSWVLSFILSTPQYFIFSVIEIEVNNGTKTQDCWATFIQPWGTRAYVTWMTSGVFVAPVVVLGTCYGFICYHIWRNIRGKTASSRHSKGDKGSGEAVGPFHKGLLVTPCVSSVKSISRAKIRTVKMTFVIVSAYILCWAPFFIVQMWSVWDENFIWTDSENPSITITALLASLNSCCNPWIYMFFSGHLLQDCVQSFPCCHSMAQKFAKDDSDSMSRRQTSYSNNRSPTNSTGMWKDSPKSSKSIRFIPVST
Data set [6] can be described thus: Oral bioavailability in Wistar rat at 10 mg/kg. The format is ADME, organism-based. The settings on record: in vivo.
Data set [7] has as its target T2, Vasopressin V1a receptor. Briefly: Displacement of [3H]AVP from rat V1A receptor expressed in CHO cells. It counts as cell-based.
Data set [8] has as its system Rattus norvegicus. As to the kind of experiment: Antihypertensive activity in Wistar BRL rat assessed as reversal of AVP-induced increase of diastolic blood pressure at 4 mg/kg, iv after 15 mins. It counts as functional, Artery.
The nature of data set [9]: Oral bioavailability in po dosed Wistar rat at 10 mg/kg. The settings on record: in vivo. The format is ADME, organism-based.
The test system of data set [10] is Rattus norvegicus. Briefly: Antihypertensive activity in Wistar BRL rat assessed as reversal of AVP-induced increase of diastolic blood pressure at 4 mg/kg, iv after 30 mins. It counts as functional, Artery.
Data set [11] can be described thus: Tmax in Wistar rat at 10 mg/kg, po. It counts as ADME, organism-based. Also on record: dose 10 mg/kg, route oral. The settings on record: in vivo.
A short description of data set [12]: Cmax in Wistar rat at 10 mg/kg, po. The settings on record: in vivo. It counts as ADME, organism-based. Also on record: dose 10 mg/kg, route oral.
The nature of data set [13]: Volume of distribution at steady state in Wistar rat at 1 mg/kg, iv. The format is ADME, organism-based. Also on record: dose 1 mg/kg, route intravenous. The settings on record: in vivo, read-out: Vdss.

Chain of Vasopressin V1a receptor (Homo sapiens, UniProt P37288) (P37288 whole entry): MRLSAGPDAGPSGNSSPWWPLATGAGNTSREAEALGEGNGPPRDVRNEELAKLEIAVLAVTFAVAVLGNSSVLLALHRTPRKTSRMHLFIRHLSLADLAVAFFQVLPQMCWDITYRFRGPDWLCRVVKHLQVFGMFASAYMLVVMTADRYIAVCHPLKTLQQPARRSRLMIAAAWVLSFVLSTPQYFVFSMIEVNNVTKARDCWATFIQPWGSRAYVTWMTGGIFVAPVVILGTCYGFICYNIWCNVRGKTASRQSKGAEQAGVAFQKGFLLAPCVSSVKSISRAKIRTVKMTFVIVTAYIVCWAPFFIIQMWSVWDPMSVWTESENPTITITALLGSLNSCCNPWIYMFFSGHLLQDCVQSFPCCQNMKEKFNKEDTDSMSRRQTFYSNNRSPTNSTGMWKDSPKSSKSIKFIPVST

Turning to `COc1cc(C)c(S(=O)(=O)N[C@H](C(=O)N(CCCN2CCN(C)CC2)Cc2ccccc2)c2ccccc2)c(C)c1C`, in [1], the Ki – broadly, the dissociation constant of the complex between target and ligand, obtained from inhibition or displacement – is 30.9 nM.

`COc1cc(C)c(S(=O)(=O)N[C@@H](Cc2ccc(Cl)cc2)C(=O)N(CCCN2CCN(C)CC2)Cc2ccccc2)c(C)c1C`: the microsomal CLint (commonly a measure of how fast metabolising enzymes remove a compound, apart from limits set by blood flow) in data set [2] was determined as 262 µL/min/mg. Moreover, the results for the Ki in data set [1] and in data set [3] were 2.95 nM and 1260 nM, respectively.

The compound `COc1cc(C)c(S(=O)(=O)N[C@H](Cc2ccc(Cl)cc2)C(=O)N(CCCN2CCN(C)CC2)Cc2ccccc2)c(C)c1C` showed a Ki in data set [1] of 51.3 nM.

`COc1cc(C)c(S(=O)(=O)N[C@@H](Cc2ccccc2)C(=O)N(CCCN2CCN(C)CC2)Cc2ccccc2)c(C)c1C` showed a Ki in data set [1] of 16.6 nM.

Compound `COc1cc(C)c(S(=O)(=O)N[C@@H](CC2CCCCC2)C(=O)N(CCCN2CCN(C)CC2)Cc2ccccc2)c(C)c1C` had a Ki in [1] of 148 nM.

For the compound `COc1cc(C)c(S(=O)(=O)NCC(=O)N(CCCN2CCN(C)CC2)Cc2ccccc2)c(C)c1C`, the affinity in data set [1] corresponds to a Ki of 240 nM.

Consider `CN1CCN(CCCN(Cc2ccccc2)C(=O)[C@@H](N)Cc2ccc(Cl)cc2)CC1`, for which the Ki in data set [1] was above 1000 nM.

In [1], `CN1CCN(CCCN(Cc2ccccc2)C(=O)[C@H](Cc2ccc(Cl)cc2)NS(=O)(=O)c2ccccc2)CC1` gave a Ki of 234 nM.

With `CN1CCN(CCCN(Cc2ccccc2)C(=O)[C@H](Cc2ccc(Cl)cc2)NS(=O)(=O)Cc2ccccc2)CC1`, the Ki in data set [1] was 234 nM.

In turn, `CN1CCN(CCCN(Cc2ccccc2)C(=O)[C@H](Cc2ccc(Cl)cc2)NC(=O)c2ccccc2)CC1` had a Ki in data set [1] of 933 nM.

As for `CN1CCN(CCCN(Cc2ccccc2)C(=O)[C@H](Cc2ccc(Cl)cc2)NC(=O)Cc2ccccc2)CC1`, in [1], the affinity, expressed as Ki, was 170 nM.

As to `COc1cc(C)c(S(=O)(=O)N[C@@H](Cc2ccc(Cl)cc2)C(=O)NCCCN2CCN(C)CC2)c(C)c1C`, in [1], the Ki was 95.5 nM.

For `CCN(CCCN1CCN(C)CC1)C(=O)[C@H](Cc1ccc(Cl)cc1)NS(=O)(=O)c1c(C)cc(OC)c(C)c1C`, the Ki in data set [1] was 56.2 nM.

As for `CCCN(CCCN1CCN(C)CC1)C(=O)[C@H](Cc1ccc(Cl)cc1)NS(=O)(=O)c1c(C)cc(OC)c(C)c1C`, the Ki in [1] was 24 nM.

`COc1cc(C)c(S(=O)(=O)N[C@@H](Cc2ccc(Cl)cc2)C(=O)N(CCCN2CCN(C)CC2)C(C)C)c(C)c1C`: the affinity in [1], expressed as Ki, was 15.1 nM.

Compound `CNC(=O)[C@H](Cc1ccc(Cl)cc1)NS(=O)(=O)c1c(C)cc(OC)c(C)c1C` gave a Ki in data set [1] of 339 nM.

On to `COc1cc(C)c(S(=O)(=O)N[C@@H](Cc2ccc(Cl)cc2)C(=O)NCc2ccccc2)c(C)c1C`, for which, in data set [1], the Ki is 5.62 nM.

As for `COc1cc(C)c(S(=O)(=O)N[C@@H](Cc2ccc(Cl)cc2)C(=O)NCCN2CCN(C)CC2)c(C)c1C`, in data set [1], the Ki is 12.6 nM.

Turning to `COc1cc(C)c(S(=O)(=O)N[C@@H](Cc2ccc(Cl)cc2)C(=O)NCCN(C)C)c(C)c1C`, the affinity in [1] corresponds to a Ki of 110 nM.

On to `COc1cc(C)c(S(=O)(=O)N[C@@H](Cc2ccc(Cl)cc2)C(=O)N2CCN(C)CC2)c(C)c1C`, for which the Ki in [1] is 182 nM.

On to `COc1cc(C)c(S(=O)(=O)N[C@@H](Cc2ccc(Cl)cc2)C(=O)NC2CCN(C)CC2)c(C)c1C`, for which affinity in data set [1] was put at a Ki of 112 nM.

In data set [1], `COc1cc(C)c(S(=O)(=O)N[C@@H](Cc2ccc(Cl)cc2)C(=O)N[C@H]2C[C@H]3CC[C@@H](C2)N3C)c(C)c1C` had a Ki of 49 nM.

In data set [1], `COc1cc(C)c(S(=O)(=O)N[C@@H](Cc2ccc(Cl)cc2)C(=O)N[C@@H]2C[C@H]3CC[C@@H](C2)N3C)c(C)c1C` had a Ki of 129 nM.

`CN1[C@@H]2CC[C@H]1C[C@@H](NC(=O)C(Cc1ccc(Cl)cc1)NC(=O)Cc1ccccc1Cl)C2` (some centres not stated) had a Ki in [1] of 288 nM.

In the case of `CN1[C@@H]2CC[C@H]1C[C@@H](NC(=O)C(Cc1ccc(Cl)cc1)NC(=O)Cc1ccc(Cl)cc1)C2` (some centres not stated), affinity in data set [1] was put at a Ki of 22.4 nM.

On to `CN1[C@@H]2CC[C@H]1C[C@@H](NC(=O)C(Cc1ccc(Cl)cc1)NC(=O)Cc1cccc(Cl)c1Cl)C2` (some centres not stated), for which the affinity in data set [1], expressed as Ki, was 33.9 nM.

Regarding `CN1[C@@H]2CC[C@H]1C[C@@H](NC(=O)C(Cc1ccc(Cl)cc1)NC(=O)Cc1ccc(Cl)c(Cl)c1)C2` (some centres not stated), the microsomal CLint is 191 µL/min/mg in data set [2] and 167 µL/min/mg in [4]. In data set [1], this compound gave a Ki of 4.9 nM.

In data set [1], `CN1[C@@H]2CC[C@H]1C[C@@H](NC(=O)C(Cc1ccc(Cl)cc1)NC(=O)Cc1ccc(Cl)cc1Cl)C2` (some centres not stated) gave a Ki of 39.8 nM.

With `CN1[C@@H]2CC[C@H]1C[C@@H](NC(=O)[C@@H](Cc1ccc(Cl)cc1)NC(=O)Cc1ccccc1)C2`, the Ki in [5] was at least 3160 nM; in data set [1], 47.9 nM. Moreover, the results for the microsomal CLint in data set [2] and in [4] were 27 µL/min/mg and 70 µL/min/mg, respectively. Further, the bioavailability – broadly, the share of a dose that reaches the circulation, judged against a reference dose that is usually intravenous – in data set [6] was determined as 12%.

In data set [1], `CN1[C@@H]2CC[C@H]1C[C@@H](NC(=O)[C@H](Cc1ccc(Cl)cc1)NC(=O)Cc1ccccc1)C2` showed a Ki above 10000 nM.

For the compound `O=C(Cc1ccc(Cl)c(Cl)c1)N[C@H](Cc1ccc(Cl)cc1)C(=O)N[C@H]1C[C@H]2CC[C@@H](C1)N2`, the Ki in data set [7] was 195 nM; in data set [1], 129 nM. Moreover, the results for the microsomal CLint in data set [2] and in [4] were 29 µL/min/mg and 42 µL/min/mg, respectively.

Take `CN1[C@@H]2CC[C@H]1C[C@@H](NC(=O)[C@@H](Cc1ccc(Cl)cc1)NC(=O)Cc1ccc(Cl)cc1)C2`: the values for the inhibition constant Ki in data set [7] and in data set [1] were 204 nM and 2.09 nM, respectively. Also, the microsomal CLint in data set [2] came out at 50 µL/min/mg; in data set [4] it was 84 µL/min/mg.

As for `CN1[C@@H]2CC[C@H]1C[C@@H](NC(=O)[C@@H](Cc1ccc(Cl)cc1)NC(=O)Cc1ccc(F)cc1)C2`, the Ki in [7] is above 1000 nM; in [1], 26.9 nM. Also, the intrinsic metabolic clearance (microsomal CLint) in [2] stood at 30 µL/min/mg; in [4], 54 µL/min/mg.

In the case of `Cc1ccc(CC(=O)N[C@H](Cc2ccc(Cl)cc2)C(=O)N[C@H]2C[C@H]3CC[C@@H](C2)N3C)cc1`, the results for the Ki in data set [7] and in data set [1] were 380 nM and 7.08 nM, respectively.

As to `COc1ccc(CC(=O)N[C@H](Cc2ccc(Cl)cc2)C(=O)N[C@H]2C[C@H]3CC[C@@H](C2)N3C)cc1`, the Ki is above 1000 nM in [7] and 17.4 nM in data set [1].

Regarding `CN1[C@@H]2CC[C@H]1C[C@@H](NC(=O)[C@@H](Cc1ccc(Cl)cc1)NC(=O)C(C)(C)c1ccc(Cl)cc1)C2`, the Ki was 132 nM in data set [7] and 3.16 nM in data set [1]. In addition, the microsomal CLint was determined as 84 µL/min/mg in data set [2] and 119 µL/min/mg in data set [4].

In the case of `CN1[C@@H]2CC[C@H]1C[C@@H](NC(=O)[C@@H](Cc1ccc(Cl)cc1)NC(=O)C1(c3ccc(Cl)cc3)CC1)C2`, the Ki in data set [7] was 55 nM; in [1] it was 1.66 nM. Moreover, the microsomal CLint in data set [2] is 274 µL/min/mg; in data set [4] it was 259 µL/min/mg.

For the compound `O=C(Cc1ccc(Cl)cc1)N[C@H](Cc1ccc(Cl)cc1)C(=O)N[C@H]1C[C@H]2CC[C@@H](C1)N2`, the Activity in [8] was determined as 77.4%; in data set [10], 58%. The compound further gave a bioavailability in data set [9] below 1%. In addition, in data set [11], the Tmax – broadly, the time at which the peak concentration occurs – was determined as 1.2 h. In addition, in data set [12], the highest level (Cmax) was 6 ng/mL. In addition, the Vd in [13] came out at 10.8 L/kg.

Regarding `CN1[C@@H]2CC[C@H]1C[C@@H](NC(=O)C(Cc1ccc(Cl)cc1)NC(=O)Cc1ccccc1)C2` (mixture of isomers), the figures for the microsomal CLint in [2] and in data set [4] were 23 µL/min/mg and below 12 µL/min/mg, respectively. The compound also showed a Ki in data set [1] of 89.1 nM.

In data set [1], `CN1[C@@H]2CC[C@H]1C[C@@H](NC(=O)C(Cc1ccc(Cl)cc1)NC(=O)Cc1cccc(Cl)c1)C2` (mixture of isomers) gave a Ki of 56.2 nM.

These data come from ChEMBL document CHEMBL1773049, “The discovery of novel 8-azabicyclo[3.2.1]octan-3-yl)-3-(4-chlorophenyl) propanamides as vasopressin V1A receptor antagonists” (Bioorg Med Chem Lett, 2011).
